Patent publication US7429564B2, “Oral insulin therapy” (Emisphere Technologies, Inc., priority 2002, dated 2008)

What was measured:
blood glucose = tested on: blood glucose; parameters: species or system Sprague-Dawley rats; details: rat, in vivo, 0.05 mg/kg
Description: An aqueous insulin stock solution was prepared (at pH 7.5) with a final insulin concentration of approximately 15 mg/mL. Delivery agents were dissolved in water with subsequent additions of sodium hydroxide or hydrochloric acid to both dissolve the delivery agent and to titrate the dosing solution to pH 7.5-8.5. The required amount of insulin was added to the delivery agent solution before dosing.
Insulin levels in the rats were assayed using the Insulin ELISA Test Kit [DSL, Webster, Tex. Cat. #DSL-10-1600]. The assay covered the range 3.125 to 250 mU/mL. Blood glucose levels in the rats were measured using a glucometer, One-Touch Basic Blood Glucose Monitoring System, manufactured by Lifescan Inc. (Milpitas, Calif.).
A total of 60 male Sprague-Dawley rats were fasted for 24 hours and then anesthetized with Thorazine (1.5 mg/kg, im) and Ketamine (44 mg/kg, im). They were then divided into the following 5 treatment groups: • 1. H2O (p.o. 1 mL/kg) • 2. Carrier (p.o., 1 mL/kg; 200 mg/kg) • 3. Insulin (p.o., 1 ml/kg; 0.5 mg/kg) • 4. Insulin and Carrier (p.o., 1 ml/kg; 0.5 mg/kg Insulin and 200 mg/kg 1182) • 5. Insulin (s.c., 0.05 mg/kg) • There were twelve animals per group, with three being sacrificed at 30, 60, 120 and 180 minutes. For serum insulin and blood glucose monitoring, 0.4 mL of blood was drawn from the tail artery. […]

glucose infusion rate = assay: Example 6: glucose clamp study, glucose infusion rate PD and relative biopotency; type: in vivo, human; details: SC 15 U
From the text: The glucose clamp technique was applied to compare the time-action profiles of the orally applied insulin in comparison to SC regular insulin. This method utilizes negative feedback from frequent blood glucose sample values to adjust a glucose infusion to maintain a defined and constant blood glucose level. The glucose infusion rate therefore becomes a measure of the pharmacodynamic effect of any insulin administered.
During each study visit, stabilized individual blood glucose concentrations were maintained after drug administration using a glucose clamp procedure. The glucose clamp technique [DeFronzo, et al. 1979, Glucose Clamp Technique: A Method of Quantifying Insulin Secretion and Resistance, Am. J. Physiol. 237: E214-E223.] was use to compare the time-action profiles of the orally-applied insulin to s.c. insulin. This method utilizes negative feedback from frequent blood glucose sample values to adjust a glucose infusion to maintain euglycemia. The glucose infusion rate becomes a measure of the pharmacodynamic effect of any insulin administered.
The clamp level was adjusted by a variable intravenous (IV) insulin infusion and glucose infusion rate during a 6 hour baseline period before dosing. During the last 2 hours before administration of the study medication, the insulin infusion was set to a rate of 0.2 mU/kg/min, which rate was not changed until the end of the experiment. At t=0 minutes, exogenous insulin was administered by oral administration or by SC injection. The PD response elicited by the study medication was registered for another 6 hours. No food intake was allowed during this period, but water could be consumed as desired.
The glucose clamp procedure was performed using a Biostator (glucose controlled insulin infusion system—GCIIS, Life Science Instruments, Elkhart, Ind., USA). A 17-gauge PTFE catheter was inserted into an antecubital vein for blood sampling and kept patent with 0.15 mol/L saline. A dorsal hand vein or lateral wrist vein of the same arm was cannulated in retrograde fashion for insertion of an 18-gauge PTFE double lumen catheter connected to the glucose sensor of the Biostator. The catheterized hand was placed in a hot box and warmed to an air temperature of 55° C. On the contralateral arm, a third vein was cannulated with an 18-gauge PTFE catheter to infuse a glucose solution (20% in water). Into the same vein, an insulin solution (regular human insulin in 0.15 mol/L saline diluted with 2 mL of the patient's blood per 100 mL) was continuously infused by means of a syringe pump (Perfusor Secura FT, Braun, Melsungen, Germany).
The primary PD endpoint of the study was the area under the glucose infusion rate curve (AUCGIR) in the first hr after drug administration (AUCGIR 0-1h). The secondary endpoints for pharmacodynamic assessment were the following parameters: Maximum glucose infusion rate (GIRmax), time to GIRmax (tGIRmax), area under the glucose infusion rate curve in defined time-intervals (AUCGIR 0-2h, AUCGIR 0-3h, AUCGIR 0-4h, AUCGIR 0-5h, AUCGIR 0-6h), time to early and late half-maximum glucose infusion rate (early and late TGIR 50%), and maximum reduction of C-peptide concentrations.
PD parameters used for analysis were the maximum glucose infusion rate after application of the study drugs (GIRmax), the time to maximum glucose infusion rate (tGIRmax), time to half-maximum GIR values before GIRmax (early tGIR 50%), time to half-maximum GIR values after GIRmax (late tGIR 50%), and the area under the glucose infusion rate versus time curves from 0 to 60, 120, 180, 240, 300, and 360 min after dosing, and from 180 to 360 min post dose (AUCGIR 0-1h, AUCGIR 0-2h, AUCGIR 0-3h AUCGIR 0-4h, AUCGIR 0-5h, AUCGIR 0-6h, AUCGIR 3-6h, respectively). In addition, plasma concentrations of C-peptide and plasma glucose concentrations were used for PD analysis. […]

SC insulin: human regular insulin injected subcutaneously (Humulin R or equivalent; Calbiochem insulin in the rat studies)
Delay of tmax vs oral (blood glucose): about 15 minutes
GIR Early t50% (glucose infusion rate): 150 ± 87 min
GIRmax (glucose infusion rate): 3.6 ± 1.8 mg/kg/min
Glucose infusion rate AUC0-1h (glucose infusion rate): 27 ± 32 mg/kg
Glucose infusion rate AUC0-2h (glucose infusion rate): 136.54 ± 106.54 mg/kg
Glucose infusion rate AUC0-3h (glucose infusion rate): 271.43 ± 191.04 mg/kg
Glucose infusion rate AUC0-4h (glucose infusion rate): 421.33 ± 264.76 mg/kg
Glucose infusion rate AUC0-5h (glucose infusion rate): 548.83 ± 342.71 mg/kg
Glucose infusion rate AUC0-6h (glucose infusion rate): 650.70 ± 380.16 mg/kg
tGIRmax (glucose infusion rate): 255 ± 108 min
GIR Early t50% (glucose infusion rate; listed as SC Regular Insulin): 150.40 ± 87.44 min
GIRmax (glucose infusion rate; listed as SC Regular Insulin): 3.57 ± 1.79 mg/kg/min
Glucose infusion rate AUC0-1h (glucose infusion rate; listed as SC Regular Insulin): 27.38 ± 32.22 mg/kg
tGIRmax (glucose infusion rate; listed as SC Regular Insulin): 255.30 ± 108.15 min
